Data: ChEMBL document CHEMBL1649188, “Posaconazole therapeutic drug monitoring: a reference laboratory experience” (Antimicrob Agents Chemother, 2009)

What was measured:
Format in all cases: ADME, organism-based
Conditions in all cases: in vivo
Homo sapiens [1] = organism: Homo sapiens; assay: Drug level in patient serum with chronic graft-versus-host disease by HPLC analysis
Homo sapiens [2] = organism: Homo sapiens; assay: Drug level in patient serum with acute graft-versus-host disease by HPLC analysis
Homo sapiens [3] = organism: Homo sapiens; assay: Drug level in patient serum with infection by HPLC analysis
Homo sapiens [4] = organism: Homo sapiens; assay: Drug level in patient serum with invasive aspergillosis by HPLC analysis

`CC[C@@H]([C@H](C)O)n1ncn(-c2ccc(N3CCN(c4ccc(OC[C@@H]5CO[C@@](Cn6cncn6)(c6ccc(F)cc6F)C5)cc4)CC3)cc2)c1=O` [POSACONAZOLE] gave a Drug uptake (Homo sapiens [1]) of 1.47 µg/mL, a Drug uptake (Homo sapiens [2]) of 0.958 µg/mL and a Drug uptake (Homo sapiens [3]) of 0.611 µg/mL. The Drug uptake (Homo sapiens [4]) was 0.134 µg/mL.
